Measurements as given in US20030040510A1, “Selective estrogen receptor modulators in combination with estrogens” (Endorecherche, Inc., priority 2000, published 2003).
“Also recorded” adds a separate entry of the source. Marks after values point to notes of the source that are not given here.

Legend:
[1] = tested on: uterus and vagina of ovariectomized mice; test: Uterine and vaginal weight in ovariectomized mice treated or not with estrone (9 days oral); format: in vivo, BALB/c mice; details: for Inhibition of estrone-stimulated uterine weight / Inhibition of estrone-stimulated vaginal weight: 9 days, OVX mice + E1
Experimental: (St-Constant, Quebec, Canada) and housed 5 per cage in a temperature (23±1° C.)—and light (12 h light/day, lights on at 7:15)—controlled environment. The mice were fed rodent chow and tap water ad libitum. […] Ten mice were kept intact as controls. […] Compounds were dissolved in ethanol (4% final concentration) and administered in 0.4% methylcellulose. Mice in the intact and OVX control groups received the vehicle alone (4% ETOH-0.4% methylcellulose) during the 9-day period. The animals were killed by exsanguination at the abdominal aorta on the 11th morning following ovariectomy.

[2] = tested on: ovariectomized female rats; test: Prevention of bone loss, body fat, serum cholesterol and ALP, 26-week treatment of OVX rats (Example 5A, experiment 2); format: in vivo, Sprague-Dawley rats; details: 26 weeks
Experimental: (§1) Ten to twelve week-old female Sprague-Dawley rats (Crl:CD(SD)Br) (Charles River Laboratory, St-Constant, Canada) weighing approximately 220-270 g at start of treatment were used. The animals were acclimatized to the environmental conditions (temperature: 22±3° C.; humidity: 50±20%; 12-h light-12-h dark cycles, lights on at 07:15 h) for at least 1 week before starting the experiments. The animals were housed individually and were allowed free access to tap water and a pelleted certified rodent feed (Lab Diet 5002, Ralston Purina, St-Louis, Mo.). Experiments were conducted in an animal facility approved by the Canadian Council on Animal Care (CCAC) and the Association for Assessment and Accreditation of Laboratory Animal Care (AAALAC) in accordance with the CCAC Guide for Care and Use of Experimental Animals.
On day 1 of the study, the animals of the appropriate groups were bilaterally OVX under isoflurane anesthesia. Tested compounds were administered as suspension in 0.4% methylcellulose by oral gavage. Treatments were initiated on day 2 of the study and were performed once daily during 26 weeks. In both experiments, animals not receiving a test article were treated with the appropriate vehicle alone during the same period.
(§2) After 3 months (experiment 1) or 26 weeks (experiment 2) of treatment, individual rats under Isoflurane anesthesia had their whole body skeleton and lumbar spine scanned using dual energy x-ray absorptiometry (DEXA; QDR 4500A, Hologic, Waltham, Mass.) and a Regional High Resolution Scan software. The bone mineral density (BMD) of the lumbar spine (vertebrae L2 to L4) and the total body composition (fat percentage) were determined.
(§3) After 3 months (experiment 1) or 26 weeks (experiment 2) of treatment, blood samples were collected at the jugular vein from overnight fasted animals (under Isoflurane anesthesia). Samples were processed for serum preparation and frozen at −80° C. until assay. Serum cholesterol levels and alkaline phospatase activity (ALP) were determined using the Boehringer Mannheim Diagnostic Hitachi 911 Analyzer (Boehringer Mannheim Diagnostic Laboratory Systems).

MCF-7 cells = test: Proliferation of human breast cancer MCF-7 cells (DNA content); format: cell-based; details: MCF-7, Experiment 1
Experimental: The MCF-7 human breast adenocarcinoma cell line was derived from the pleural effusion of a patient. MCF-7 cells were used between passages 148 and 165 and subcultured weekly
Cells in their late logarithmic growth phase were harvested with 0.1% pancreatin (Sigma) and resuspended in the appropriate medium containing 50 ng bovine insulin/ml and 5% (v/v) FBS treated twice with dextran-coated charcoal to remove endogenous steroids. Cells were plated in 24-well Falcon plastic culture plates (2 cm^2/well) at the indicated density and allowed to adhere to the surface of the plates for 72 h. Thereafter, medium was replaced with fresh medium containing the indicated concentrations of compounds diluted from 1000×stock solutions in 99% redistilled ethanol in the presence or absence of E2. Control cells received only the ethanolic vehicle (0.1% EtOH,v/v). Cells were incubated for the specified time intervals with medium changes at 2-or 3-day intervals. Cell number was determined by measurement of DNA content.
Dose-response curves as well IC50 values were calculated using a weighted iterative nonlinear least-squares regression. All results are expressed as means±SEM.

[3] = tested on: uterus and vagina of ovariectomized nude mice; test: Uterine, vaginal and body weight in the xenograft-bearing OVX nude mice (Example 1)
[4] = tested on: bone metabolism in the rat; test: Biochemical parameters of bone metabolism (urine, serum) after DHEA and/or EM-800; format: in vivo; details: DHEA 10 mg, EM-800 75 μg
Excerpt: Data are expressed as the means±SEM.**: P<0.01 experimental versus respective control.
It is particularly important to indicate that the combination of DHEA and EM-800 exerted unexpected beneficial effects on important biochemical parameters of bone metabolism. […] Moreover, no effect of DHEA could be detected on daily urinary calcium or phosphorus excretion (Luo et al., Endocrinology 138: 4435-4444, 1997). EM-800, decreased the urinary hydroxyproline/creatinine ratio by 48% while, similarly to DHEA, no effect of EM-800 was seen on urinary calcium or phosphorus excretion. EM-800, moreover, had no effect on serum alkaline phosphatase activity, a marker of bone formation while DHEA increased the value of the parameter by about 75% (Luo et al., Endocrinology 138: 4435-4444, 1997).

[5] = tested on: bone metabolism in the rat; details: cited from earlier work
[6] = tested on: OVX rats having established osteopenia; test: Treatment of OVX rats having established osteopenia, 26 weeks (Example 5B): BMD, total body fat; format: in vivo, Sprague-Dawley rats; details: treatment started 10 weeks after OVX, 26 weeks daily
Experimental: as §1, with “Height” for “Ten”, “nine month-old” for “twelve week-old”, “Canada)” for “Canada) weighing approximately 220-270 g at start of treatment”, “used in this experiment.” for “used.”, “prior to” for “before starting”, “ovariectomy. Animals were bilaterally ovariectomized (OVX) under isoflurane anesthesia. Twenty animals were kept intact as control.” for “experiments.”
Treatments were initiated 10 weeks after the ovariectomy and were performed once daily during 26 weeks. Animals not receiving a test article were treated with the appropriate vehicle alone during the same period.
Prior to the OVX, prior to the first day treatment (10 weeks after OVX) and after 26 weeks of treatment, individual rats under Isoflurane anesthesia had their whole body skeleton, lumbar spine and right femur scanned using dual energy x-ray absorptiometry (DEXA; QDR 4500A, Hologic, Waltham, Mass.) and a Regional High Resolution Scan software. The bone mineral density (BMD) of the lumbar spine (vertebrae L2 to L4), femur and the total body composition (fat percentage) were determined.

[7] = tested on: ZR-75-1 breast tumor xenografts; test: Growth of human ZR-75-1 breast tumor xenografts in OVX nude mice supplemented with estrone (DHEA, EM-800; Example 1); details: OVX + E1; for Inhibition of E1-stimulated ZR-75-1 tumor size / Inhibition of terminal tumor weight / Average tumor weight: 9.5 months
[8] = tested on: ovariectomized female rats; test: Prevention of bone loss, body fat, serum cholesterol and ALP, 3-month treatment of OVX rats (Example 5A, experiment 1); format: in vivo, Sprague-Dawley rats; details: OVX rats, 3 months
Experimental: as §1
On day 1 of the study, the animals of the appropriate groups were bilaterally ovariectomized (OVX) under isoflurane anesthesia. […] Treatments were initiated on day 2 of the study and were performed once daily during 3 months.
as §2, §3

[9] = OVX + ERA-923 3 μg (no estrone)
[10] = OVX + ERA-923 30 μg (no estrone)
[11] = alone, absence of estrone, both doses used
[12] = OVX rats, Premarin 0.25 mg/kg, SERMs 2.5 mg/kg oral
[13] = DHEA 0.3 mg (alone or with EM-800 15 μg)
[14] = DHEA 1.0 mg (alone or with EM-800 15 μg)
[15] = DHEA 3.0 mg (alone or with EM-800 15 μg)
[16] = E2 1 mg/kg, EM-652.HCl 2.5 mg/kg, DHEA 80 mg/kg

With `Cc1c(-c2ccc(O)cc2)n(Cc2ccc(OCCN3CCCCC3)cc2)c2ccc(O)cc12` [ERA-923] the “Inhibition of estrone-stimulated uterine weight” value ([1]; 1 μg daily oral) was 12%, the “Inhibition of estrone-stimulated uterine weight” value ([1]; 3 μg daily oral) was 47% and the “Inhibition of estrone-stimulated vaginal weight” value ([1]; 3 μg daily oral) was 16%. The “Inhibition of estrone-stimulated uterine weight” value ([1]; 10 μg daily oral) was 74%, the “Inhibition of estrone-stimulated vaginal weight” value ([1]; 10 μg daily oral) was 56% and the “Inhibition of estrone-stimulated uterine weight” value ([1]; 30 μg daily oral) was 94%. The “Inhibition of estrone-stimulated vaginal weight” value ([1]; 30 μg daily oral) was 93%, the Uterine weight ([1]; OVX + E1 + ERA-923 1 μg) was 105.5 ± 6.1 mg and the Vaginal weight ([1]; OVX + E1 + ERA-923 1 μg) was 54.2 ± 3.0 mg. The Uterine weight ([1]; OVX + E1 + ERA-923 3 μg) was 69.7 ± 4.4 mg, the Vaginal weight ([1]; OVX + E1 + ERA-923 3 μg) was 47.2 ± 1.6 mg and the Uterine weight ([1]; OVX + E1 + ERA-923 10 μg) was 42.1 ± 2.7 mg. It also gave a Vaginal weight ([1]; OVX + E1 + ERA-923 10 μg) of 31.1 ± 2.3 mg, a Uterine weight ([1]; OVX + E1 + ERA-923 30 μg) of 21.7 ± 1.7 mg and a Vaginal weight ([1]; OVX + E1 + ERA-923 30 μg) of 16.7 ± 1.8 mg. The Uterine weight [1, 9] was 18.3 ± 1.2 mg, the Vaginal weight [1, 9] was 14.1 ± 1.2 mg and the Uterine weight [1, 10] was 17.7 ± 1.6 mg. For the same compound, the Vaginal weight [1, 10] was 15.3 ± 2.0 mg, the “Stimulatory effect on uterine weight” value [1, 11] was “no significant stimulatory effect” and the “Stimulatory effect on vaginal weight” value [1, 11] was “no significant stimulatory effect”. The “Reversal of the fat increase induced by estrogen deficiency” value ([2]; OVX rats) was 75%, the “Serum ALP” value ([2]; OVX rats) was 85 ± 6 IU and the Serum cholesterol ([2]; OVX rats) was 1.15 ± 0.05 mmol/L. For the same compound, the Total fat ([2]; OVX rats) was 28.0 ± 1.8 %, the “Lumbar spine BMD” value [2, 12] was 0.2252 ± 0.0058 g/cm^2 and the “Lumbar spine, Prevention of Bone Loss” value [2, 12] was 49%. For the same compound, the “OVX-induced increase on serum cholesterol levels” value ([2]; alone or in combination with Premarin) was “completely prevented”, the IC50 (MCF-7 cells; Homo sapiens, MCF7, read-out: Inhibition of 1nM E2 stimulation of DNA by tested compounds IC50) was 3.68 nM and the “Maximal stimulation of DNA by tested compounds” value (MCF-7 cells) was “N.S”.
In the case of `C[C@]12CC[C@H](O)CC1=CC[C@@H]1[C@@H]2CC[C@]2(C)C(=O)CC[C@@H]12` [DHEA, dehydroepiandrosterone, reference compound], the “Effect on body weight adjusted for tumor weight” value ([3]; 9.5 months) is reported as “No significant effect”, the “Effect on estrone-stimulated vaginal weight” value ([3]; addition of DHEA to estrone) is reported as “had no significant effect” and the “Inhibition of the stimulatory effect of estrone on uterine weight” value ([3]; highest dose of DHEA used) is reported as 26%. For the same compound, the “Serum tALP” value [4] was 198.38 ± 30.76* IU/L, the “Urine HP/Cr” value [4] was 14.02 ± 1.59 μmol/mmol and the Urine calcium [4] was 25.87 ± 3.54 μmol/24h/100g. The Urine phosphorus [4] was 151.41 ± 14.57 μmol/24h/100g, the “Decrease of urinary hydroxyproline/creatinine ratio” value [5] was “did not affect; also recorded: did not show any effect” and the “Effect on daily urinary calcium or phosphorus excretion” value [5] was “no effect”. The “Increase of serum alkaline phosphatase activity” value [5] was “about 75%”, the “Femoral BMD” value [6] was “completely prevented the further decrease” and the “Lumbar spine BMD” value [6] was “completely prevented the further decrease”. For the same compound, the Total body fat [6] was “prevented the 17% increase”, the “Inhibition of E1-stimulated ZR-75-1 tumor size” value ([7]; DHEA 0.3 mg percutaneous) was 50.4% and the “Inhibition of terminal tumor weight” value ([7]; DHEA 0.3 mg) was 67%. For the same compound, the “Inhibition of E1-stimulated ZR-75-1 tumor size” value ([7]; DHEA 1.0 mg percutaneous) was 76.8%, the “Inhibition of terminal tumor weight” value ([7]; DHEA 1.0 mg) was 82% and the “Inhibition of E1-stimulated ZR-75-1 tumor size” value ([7]; DHEA 3.0 mg percutaneous) was 80.0%. The “Inhibition of terminal tumor weight” value ([7]; DHEA 3.0 mg) was 85%, the “Category of response: Partial” value [7, 13] was 0 (0) Number and (%) and the Average tumor weight [7, 13] was 0.37 ± 0.12 g. For the same compound, the “Category of response: Partial” value [7, 14] was 0 (0) Number and (%), the Average tumor weight [7, 14] was 0.20 ± 0.06 g and the “Category of response: Partial” value [7, 15] was 0 (0) Number and (%). The Average tumor weight [7, 15] was 0.17 ± 0.06 g, the “Serum ALP” value [8] was 224±18 IU/L and the Serum cholesterol [8] was 1.59 ± 0.10 mmol/L. For the same compound, the Total fat [8] was 17.3 ± 1.5 %, the “Lumbar spine BMD” value [8, 16] was 0.2321 ± 0.0034 g/cm^2 and the “Lumbar spine, Prevention of Bone Loss” value [8, 16] was 43%.
